What was measured:
[1] = target: C-C chemokine receptor type 10 (Homo sapiens) (UniProt P46092); assay: Agonist activity at CCR10 (unknown origin)
[2] = target: C-C chemokine receptor type 10 (Homo sapiens) (UniProt P46092); assay: Agonist activity at CCR10 (unknown origin); remark: listed apart in the source

Sequence of C-C chemokine receptor type 10 (Homo sapiens) (P46092 whole entry, looked up): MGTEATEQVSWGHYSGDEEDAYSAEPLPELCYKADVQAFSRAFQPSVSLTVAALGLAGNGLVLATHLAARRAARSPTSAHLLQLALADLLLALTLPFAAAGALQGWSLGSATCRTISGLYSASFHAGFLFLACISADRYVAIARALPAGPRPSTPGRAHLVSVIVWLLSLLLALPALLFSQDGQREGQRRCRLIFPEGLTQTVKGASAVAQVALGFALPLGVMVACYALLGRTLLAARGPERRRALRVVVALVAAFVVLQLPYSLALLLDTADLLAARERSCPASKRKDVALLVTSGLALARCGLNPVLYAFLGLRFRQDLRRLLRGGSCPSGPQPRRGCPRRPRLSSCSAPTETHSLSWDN

SMILES: CC1=CCC[C@H]1NC(=O)Nc1ccc(Cl)c(S(=O)(=O)[C@@]2(C)CCOC2)c1O
- EC50 [1]: > 10 µM
- IC50 [2]: > 10 µM

Source: BindingDB's records for doi:10.1021/acs.jmedchem.7b01854 (Gsk Pharmaceuticals R & D, 2018)
